PubChem BioAssay (NCI)
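Protocol summary: plate cells (96-well), add compound at 5 concentrations, incubate 48 h, interpolate endpoints linearly. Abbreviation: GI50, concentration required for 50% inhibition of growth. TGI is the concentration that stops growth completely.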

What was measured:
Assay in all cases: inhibition of tumour cell growth, NCI panel, 48 h
786-0 renal = tested on: 786-0 renal
A549 NSCLC = tested on: A549 NSCLC
ACHN renal = tested on: ACHN renal
CAKI-1 renal = tested on: CAKI-1 renal
COLO 205 colon = tested on: COLO 205 colon
DLD-1 colon = tested on: DLD-1 colon
DMS 114 small cell lung = tested on: DMS 114 small cell lung
DMS 273 small cell lung = tested on: DMS 273 small cell lung
EKVX NSCLC = tested on: EKVX NSCLC
HCC-2998 colon = tested on: HCC-2998 colon
HCT-116 colon = tested on: HCT-116 colon
HCT-15 colon = tested on: HCT-15 colon
HOP-18 NSCLC = tested on: HOP-18 NSCLC
HOP-62 NSCLC = tested on: HOP-62 NSCLC
HOP-92 NSCLC = tested on: HOP-92 NSCLC
HT29 colon = tested on: HT29 colon
IGROV1 ovarian = tested on: IGROV1 ovarian
KM12 colon = tested on: KM12 colon
KM20L2 colon = tested on: KM20L2 colon
LOX IMVI melanoma = tested on: LOX IMVI melanoma
LXFL 529 NSCLC = tested on: LXFL 529 NSCLC
M14 melanoma = tested on: M14 melanoma
M19-MEL melanoma = tested on: M19-MEL melanoma
MALME-3M melanoma = tested on: MALME-3M melanoma
MOLT-4 leukemia = tested on: MOLT-4 leukemia
NCI-H226 lung = tested on: NCI-H226 lung
NCI-H23 lung = tested on: NCI-H23 lung
NCI-H460 lung = tested on: NCI-H460 lung
OVCAR-3 ovarian = tested on: OVCAR-3 ovarian
OVCAR-4 ovarian = tested on: OVCAR-4 ovarian
OVCAR-5 ovarian = tested on: OVCAR-5 ovarian
OVCAR-8 ovarian = tested on: OVCAR-8 ovarian
RPMI-8226 leukemia = tested on: RPMI-8226 leukemia
RXF 393 renal = tested on: RXF 393 renal
SF-268 CNS = tested on: SF-268 CNS
SF-295 CNS = tested on: SF-295 CNS
SF-539 CNS = tested on: SF-539 CNS
SK-MEL-28 melanoma = tested on: SK-MEL-28 melanoma
SK-MEL-5 melanoma = tested on: SK-MEL-5 melanoma
SK-OV-3 ovarian = tested on: SK-OV-3 ovarian
SN12C renal = tested on: SN12C renal
SNB-19 CNS = tested on: SNB-19 CNS
SNB-75 CNS = tested on: SNB-75 CNS
SNB-78 CNS = tested on: SNB-78 CNS
SR leukemia = tested on: SR leukemia
SW-620 colon = tested on: SW-620 colon
TK-10 renal = tested on: TK-10 renal
U251 CNS = tested on: U251 CNS
UACC-257 melanoma = tested on: UACC-257 melanoma
UACC-62 melanoma = tested on: UACC-62 melanoma
UO-31 renal = tested on: UO-31 renal
XF 498 CNS = tested on: XF 498 CNS
A498 renal = tested on: A498 renal
CCRF-CEM leukemia = tested on: CCRF-CEM leukemia
K-562 leukemia = tested on: K-562 leukemia
NCI-H522 lung = tested on: NCI-H522 lung
SK-MEL-2 melanoma = tested on: SK-MEL-2 melanoma

## CCCCCCCCCCCCCCCC(=O)NCC(COP(=O)([O-])OCC[N+](C)(C)C)OCC (stereo not drawn)
786-0 renal
  TGI: 5.82 µM
A549 NSCLC
  TGI: 45.7 µM
ACHN renal
  TGI: 29.1 µM
CAKI-1 renal
  TGI: 35.2 µM
COLO 205 colon
  TGI: 5.1 µM
DLD-1 colon
  TGI: 16.9 µM
DMS 114 small cell lung
  TGI: 29.8 µM
DMS 273 small cell lung
  TGI: 5 µM
EKVX NSCLC
  TGI: 36.5 µM
HCC-2998 colon
  TGI: 3.1 µM
HCT-116 colon
  TGI: 23.9 µM
HCT-15 colon
  TGI: 19.3 µM
HOP-18 NSCLC
  TGI: 4.53 µM
HOP-62 NSCLC
  TGI: 20.1 µM
HOP-92 NSCLC
  TGI: 15.6 µM
HT29 colon
  TGI: 16.3 µM
IGROV1 ovarian
  TGI: 16 µM
KM12 colon
  TGI: 3.01 µM
KM20L2 colon
  TGI: 13.7 µM
LOX IMVI melanoma
  TGI: 34.4 µM
LXFL 529 NSCLC
  TGI: 27.8 µM
M14 melanoma
  TGI: 24.7 µM
M19-MEL melanoma
  TGI: 16.2 µM
MALME-3M melanoma
  TGI: 30.8 µM
MOLT-4 leukemia
  TGI: 10.1 µM
NCI-H226 lung
  TGI: 13.6 µM
NCI-H23 lung
  TGI: 39.3 µM
NCI-H460 lung
  TGI: 7.28 µM
OVCAR-3 ovarian
  TGI: 18.9 µM
OVCAR-4 ovarian
  TGI: 17.7 µM
OVCAR-5 ovarian
  TGI: 22 µM
OVCAR-8 ovarian
  TGI: 17.2 µM
RPMI-8226 leukemia
  TGI: 9.76 µM
RXF 393 renal
  TGI: 5.3 µM
SF-268 CNS
  TGI: 27 µM
SF-295 CNS
  TGI: 18.6 µM
SF-539 CNS
  TGI: 29.8 µM
SK-MEL-28 melanoma
  TGI: 36.6 µM
SK-MEL-5 melanoma
  TGI: 33.9 µM
SK-OV-3 ovarian
  TGI: 42.6 µM
SN12C renal
  TGI: 25 µM
SNB-19 CNS
  TGI: 11 µM
SNB-75 CNS
  TGI: 23 µM
SNB-78 CNS
  TGI: 29.6 µM
SR leukemia
  TGI: 18.6 µM
SW-620 colon
  TGI: 27.4 µM
TK-10 renal
  TGI: 3.95 µM
U251 CNS
  TGI: 14.4 µM
UACC-257 melanoma
  TGI: 30.4 µM
UACC-62 melanoma
  TGI: 22.3 µM
UO-31 renal
  TGI: 32.9 µM
XF 498 CNS
  TGI: 25.5 µM

## Nc1ccccc1Nc1ccccc1C(=O)[O-].Nc1ccccc1Nc1ccccc1C(=O)[O-].[Cu+2]
786-0 renal
  TGI: > 100 µM
A498 renal
  TGI: > 100 µM
A549 NSCLC
  TGI: > 100 µM
ACHN renal
  TGI: > 100 µM
CAKI-1 renal
  TGI: > 100 µM
CCRF-CEM leukemia
  TGI: > 100 µM
COLO 205 colon
  TGI: > 100 µM
EKVX NSCLC
  TGI: > 100 µM
HCC-2998 colon
  TGI: > 100 µM
HCT-116 colon
  TGI: > 100 µM
HCT-15 colon
  TGI: > 100 µM
HOP-62 NSCLC
  TGI: > 100 µM
HT29 colon
  TGI: > 100 µM
IGROV1 ovarian
  TGI: > 100 µM
K-562 leukemia
  TGI: > 100 µM
KM12 colon
  TGI: > 100 µM
KM20L2 colon
  TGI: > 100 µM
M14 melanoma
  TGI: > 100 µM
MALME-3M melanoma
  TGI: > 100 µM
MOLT-4 leukemia
  TGI: > 100 µM
NCI-H23 lung
  TGI: > 100 µM
NCI-H460 lung
  TGI: > 100 µM
NCI-H522 lung
  TGI: > 100 µM
OVCAR-3 ovarian
  TGI: > 100 µM
OVCAR-4 ovarian
  GI50: 37.7 µM
  TGI: > 100 µM
OVCAR-5 ovarian
  TGI: > 100 µM
OVCAR-8 ovarian
  TGI: > 100 µM
RPMI-8226 leukemia
  TGI: > 100 µM
SF-268 CNS
  TGI: > 100 µM
SF-295 CNS
  TGI: > 100 µM
SF-539 CNS
  TGI: > 100 µM
SK-MEL-2 melanoma
  TGI: > 100 µM
SK-MEL-28 melanoma
  TGI: > 100 µM
SK-MEL-5 melanoma
  TGI: > 100 µM
SK-OV-3 ovarian
  TGI: > 100 µM
SN12C renal
  TGI: > 100 µM
SNB-19 CNS
  TGI: > 100 µM
SNB-75 CNS
  TGI: > 100 µM
SW-620 colon
  TGI: > 100 µM
TK-10 renal
  TGI: > 100 µM
U251 CNS
  TGI: > 100 µM
UACC-257 melanoma
  TGI: > 100 µM
UACC-62 melanoma
  TGI: 44.3 µM
UO-31 renal
  TGI: > 100 µM
XF 498 CNS
  TGI: > 100 µM
